Like-named read-outs stand apart in the source and are kept apart here.
Experiments:
[1] = target: T1, Human Tryptophan 2,3-dioxygenase (TDO) (Homo sapiens, UniProt P48775); experiment: Human TDO enzymatic assay (kynurenine level); format: biochemical
T1 construct: His tag (N); made in house; host or cells: E. coli
Outline: (§1)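 Compound is mixed with His-tagged enzyme from E. coli in pH 6.5 phosphate buffer containing ascorbate, methylene blue and catalase, at room temperature. IDO uses 6 nM enzyme and 10 μM Trp for 20 min. TDO uses 1 nM enzyme and 350 μM Trp for 70 min. TCA stops the reaction, and IC50 is derived from kynurenine levels.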

[2] = target: T2, human TDO (TDO-expressing HEK293 cells) (Homo sapiens, UniProt P48775); experiment: Cell based kynurenine assay, TDO-expressing HEK293 cell clones
T2 construct: expressed in transfected cells
Outline: (§2)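 HEK293 stable clones (hIDO1 or hTDO, CMV-driven; G418-selected); 2.5×10^4 cells/well; compound serial dilution, 24 h, 37 °C, 5% CO2; supernatant kynurenine; IC50 by nonlinear fit.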

[3] = target: T3, human IDO (IDO1-expressing HEK293 cells) (Homo sapiens, UniProt P14902); experiment: Cell based kynurenine assay, IDO1-expressing HEK293 cell clones
T3 construct: expressed in transfected cells
Outline: as §2

[4] = target: T4, Human Indoleamine 2,3-dioxygenase (IDO) (Homo sapiens, UniProt P14902); experiment: Human IDO enzymatic assay (kynurenine level); format: biochemical
T4 construct: His tag (N); made in house; host or cells: E. coli
Outline: as §1

[5] = 1 nM TDO, 350 μM L-Trp, geometric mean, read-out: TDO GMean: IC50 (μM) (Biochemical Assay)
[6] = TDO-expressing HEK293 cells, 24 hours, geometric mean, read-out: HEK293 TDO Kynurenine GMean IC50 (μM) (Cellular Assay)
[7] = IDO1-expressing HEK293 cells, 24 hours, geometric mean, read-out: HEK293 IDO1 Kynurenine GMean IC50 (μM) (Cellular Assay)
[8] = 6 nM IDO, 10 μM L-Trp, geometric mean, read-out: IDO1 GMean: IC50 (μM) (Biochemical Assay)
[9] = biochemical assay, comparative examples, 4,6 versus 5,7 indazole, read-out: TDO
[10] = cellular assay, HEK293, 24 hours, comparative examples, read-out: hTDO
[11] = cellular assay, HEK293, 24 hours, comparative examples, read-out: hIDO1
[12] = biochemical assay, comparative examples, 4,6 versus 5,7 indazole, read-out: IDO1

T3 sequence (P14902 whole entry): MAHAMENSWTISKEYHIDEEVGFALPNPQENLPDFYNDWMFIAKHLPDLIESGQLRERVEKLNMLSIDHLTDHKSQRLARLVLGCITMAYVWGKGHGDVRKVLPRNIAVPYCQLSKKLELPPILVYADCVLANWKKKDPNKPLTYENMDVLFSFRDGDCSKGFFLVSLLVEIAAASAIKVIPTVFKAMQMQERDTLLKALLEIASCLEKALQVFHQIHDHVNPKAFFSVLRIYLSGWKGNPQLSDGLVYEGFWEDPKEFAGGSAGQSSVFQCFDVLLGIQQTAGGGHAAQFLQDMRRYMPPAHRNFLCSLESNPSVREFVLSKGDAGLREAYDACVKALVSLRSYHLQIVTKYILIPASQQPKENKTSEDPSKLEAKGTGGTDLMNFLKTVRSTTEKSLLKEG
T4 sequence (P14902 whole entry): as above
T1 sequence (P48775 whole entry): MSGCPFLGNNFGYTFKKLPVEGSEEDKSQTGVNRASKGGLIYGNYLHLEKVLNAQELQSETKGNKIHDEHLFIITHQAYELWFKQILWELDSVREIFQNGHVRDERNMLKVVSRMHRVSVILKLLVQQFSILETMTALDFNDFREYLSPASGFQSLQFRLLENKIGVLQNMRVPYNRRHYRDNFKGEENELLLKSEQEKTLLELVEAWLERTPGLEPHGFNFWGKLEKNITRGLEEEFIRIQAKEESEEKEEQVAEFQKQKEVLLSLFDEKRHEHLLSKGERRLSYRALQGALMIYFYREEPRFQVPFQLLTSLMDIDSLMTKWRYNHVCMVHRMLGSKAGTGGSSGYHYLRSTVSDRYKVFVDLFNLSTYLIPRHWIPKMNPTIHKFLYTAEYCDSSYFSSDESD
T2 sequence (P48775 whole entry): as above

Row | IC50 [1, 5] | IC50 [2, 6] | IC50 [3, 7] | IC50 [4, 8] | IC50 [1, 9] | IC50 [2, 10] | IC50 [3, 11] | IC50 [4, 12] | SMILES
1 | 0.0001 to 10 µM | 0.0001 to 10 µM | 0.0001 to 10 µM | 0.0001 to 10 µM | – | – | – | – | CCS(=O)(=O)N1CCC(C(C)(C)[C@H](O)c2cc(Cl)cc3cn[nH]c23)CC1 [Compound P-0557, (S)-1-(5-chloro-1H-indazol-7-yl)-2-(1-(ethylsulfonyl)piperidin-4-yl)-2-methylpropan-1-ol]
2 | 0.0001 to 10 µM | 0.0001 to 10 µM | 0.0001 to 10 µM | 0.0001 to 10 µM | – | – | – | – | CC(C)(C1CCN(C(=O)Nc2ccc(F)nc2)CC1)C(O)c1cc(Cl)cc2cn[nH]c12 (centres unmarked) [Compound P-0558, 4-(1-(5-chloro-1H-indazol-7-yl)-1-hydroxy-2-methylpropan-2-yl)-N-(6-fluoropyridin-3-yl)piperidine-1-carboxamide]
3 | 0.0001 to 10 µM | 0.0001 to 10 µM | 0.0001 to 10 µM | 0.0001 to 10 µM | – | – | – | – | CC(C)(C1CCN(C(=O)Nc2ccc(F)nc2)CC1)[C@H](O)c1cc(Cl)cc2cn[nH]c12 [Compound P-0559, (S)-4-(1-(5-chloro-1H-indazol-7-yl)-1-hydroxy-2-methylpropan-2-yl)-N-(6-fluoropyridin-3-yl)piperidine-1-carboxamide]
4 | 0.0001 to 10 µM | 0.0001 to 10 µM | 0.0001 to 10 µM | 0.0001 to 10 µM | – | – | – | – | CC(C)(C1CCN(C(=O)NCC2CC2)CC1)[C@H](O)c1cc(Cl)cc2cn[nH]c12 [Compound P-0560, (S)-4-(1-(5-chloro-1H-indazol-7-yl)-1-hydroxy-2-methylpropan-2-yl)-N-(cyclopropylmethyl) piperidine-1-carboxamide]
5 | 0.0001 to 10 µM | 0.0001 to 10 µM | 0.0001 to 10 µM | 0.0001 to 10 µM | – | – | – | – | CC(C)(C1CCN(C(=O)NCCC(F)(F)F)CC1)[C@H](O)c1cc(Cl)cc2cn[nH]c12 [Compound P-0561, (S)-4-(1-(5-chloro-1H-indazol-7-yl)-1-hydroxy-2-methylpropan-2-yl)-N-(3,3,3-trifluoropropyl) piperidine-1-carboxamide]
6 | 0.0001 to 10 µM | 0.0001 to 10 µM | 0.0001 to 10 µM | 0.0001 to 10 µM | – | – | – | – | CC(C)(C1CCN(C(=O)NCC(F)(F)F)CC1)[C@H](O)c1cc(Cl)cc2cn[nH]c12 [Compound P-0562, (S)-4-(1-(5-chloro-1H-indazol-7-yl)-1-hydroxy-2-methylpropan-2-yl)-N-(2,2,2-trifluoroethyl) piperidine-1-carboxamide]
7 | 0.0001 to 10 µM | 0.0001 to 10 µM | 0.0001 to 10 µM | 0.0001 to 10 µM | – | – | – | – | CC(C)(C1CCN(C(=O)Nc2ccccc2)CC1)[C@H](O)c1cc(Cl)cc2cn[nH]c12 [Compound P-0563, (S)-4-(1-(5-chloro-1H-indazol-7-yl)-1-hydroxy-2-methylpropan-2-yl)-N-phenylpiperidine-1-carboxamide]
8 | 0.0001 to 10 µM | 0.0001 to 10 µM | 0.0001 to 10 µM | 0.0001 to 10 µM | – | – | – | – | CC(C)CNC(=O)N1CCC(C(C)(C)[C@H](O)c2cc(Cl)cc3cn[nH]c23)CC1 [Compound P-0564, (S)-4-(1-(5-chloro-1H-indazol-7-yl)-1-hydroxy-2-methylpropan-2-yl)-N-isobutylpiperidine-1-carboxamide]
9 | 0.0001 to 10 µM | 0.0001 to 10 µM | 0.0001 to 10 µM | 0.0001 to 10 µM | – | – | – | – | CC(C)(C1CCN(C(=O)NC[C@H]2CCCO2)CC1)[C@H](O)c1cc(Cl)cc2cn[nH]c12 [Compound P-0565, 4-((S)-1-(5-chloro-1H-indazol-7-yl)-1-hydroxy-2-methylpropan-2-yl)-N-(((R)-tetrahydrofuran-2-yl)methyl)piperidine-1-carboxamide]
10 | 0.0001 to 10 µM | 0.0001 to 10 µM | 0.0001 to 10 µM | 0.0001 to 10 µM | – | – | – | – | CC(C)(C1CCN(C(=O)NC[C@@H]2CCCO2)CC1)[C@H](O)c1cc(Cl)cc2cn[nH]c12 [Compound P-0566, 4-((S)-1-(5-chloro-1H-indazol-7-yl)-1-hydroxy-2-methylpropan-2-yl)-N-(((S)-tetrahydrofuran-2-yl)methyl)piperidine-1-carboxamide]
11 | 0.0001 to 10 µM | 0.0001 to 10 µM | 0.0001 to 10 µM | 0.0001 to 10 µM | – | – | – | – | CCCNC(=O)N1CCC(C(C)(C)[C@H](O)c2cc(Cl)cc3cn[nH]c23)CC1 [Compound P-0567, (S)-4-(1-(5-chloro-1H-indazol-7-yl)-1-hydroxy-2-methylpropan-2-yl)-N-propylpiperidine-1-carboxamide]
12 | 0.0001 to 10 µM | 0.0001 to 10 µM | 0.0001 to 10 µM | 0.0001 to 10 µM | – | – | – | – | C#CCNC(=O)N1CCC(C(C)(C)[C@H](O)c2cc(Cl)cc3cn[nH]c23)CC1 [Compound P-0568, (S)-4-(1-(5-chloro-1H-indazol-7-yl)-1-hydroxy-2-methylpropan-2-yl)-N-(prop-2-yn-1-yl)piperidine-1-carboxamide]
13 | 0.0001 to 10 µM | 0.0001 to 10 µM | 0.0001 to 10 µM | 0.0001 to 10 µM | – | – | – | – | CC(C)(C1CCN(C(=O)Nc2cccc(C#N)c2)CC1)[C@H](O)c1cc(Cl)cc2cn[nH]c12 [Compound P-0569, (S)-4-(1-(5-chloro-1H-indazol-7-yl)-1-hydroxy-2-methylpropan-2-yl)-N-(3-cyanophenyl) piperidine-1-carboxamide]
14 | 0.0001 to 10 µM | 0.0001 to 10 µM | 0.0001 to 10 µM | 0.0001 to 10 µM | – | – | – | – | CC(C)(C1CCN(C(=O)Nc2ccc(C#N)nc2)CC1)C(O)c1cc(Cl)cc2cn[nH]c12 (centres unmarked) [Compound P-0570, 4-(1-(5-chloro-1H-indazol-7-yl)-1-hydroxy-2-methylpropan-2-yl)-N-(6-cyanopyridin-3-yl)piperidine-1-carboxamide]
15 | – | – | – | – | 0.17 µM | 1.2 µM | 0.23 µM | 0.05 µM | OC(c1cc(Cl)cc2cn[nH]c12)C1CCCCC1 (centres unmarked) [drawing 810]
16 | – | – | – | – | 1.18 µM | 2.63 µM | 0.08 µM | 0.11 µM | COC12CCC(C(O)c3cc(Cl)cc4cn[nH]c34)(CC1)CC2 (centres unmarked) [drawing 812]
17 | – | – | – | – | 0.15 µM | 0.42 µM | 0.08 µM | 0.03 µM | CC(C)(C1CCN(S(C)(=O)=O)CC1)C(O)c1cc(Cl)cc2cn[nH]c12 (centres unmarked) [drawing 814]
18 | – | – | – | – | 1.18 µM | 2.63 µM | 0.08 µM | 0.11 µM | CC(C)(C1CCOCC1)C(O)c1cc(Cl)cc2cn[nH]c12 (centres unmarked) [drawing 816]
19 | – | – | – | – | 0.08 µM | 0.01 µM | 6.94 µM | 0.95 µM | CC(C)(C1CCOCC1)C(O)c1cc(Cl)cc2[nH]ncc12 (centres unmarked) [drawing 817]
20 | – | – | – | – | 0.22 µM | 2.41 µM | 0.4 µM | 0.16 µM | OC1(c2cc(Cl)cc3cn[nH]c23)CC2(CCOCC2)C1 [drawing 820]

— patent US10508085B2, “Compounds and methods for IDO and TDO modulation, and indications therefor” (Plexxikon Inc., priority 2016, dated 2019)
